Experiments:
Format in all cases: cell-based
[1] = test system: HCT-116 cells; assay: Cell viability (CellTiter-Glo), Experimental Example 4: dependence on olaparib concentration; conditions: nCas9 D10A RNP or siRNA co-treatment, Non-treated (label Olaparib) = PARP inhibitor only
Method: (§1) To transfect RNPs, cells were transfected with 665 ng of the Cas protein of each Embodiment and 95 ng of the sgRNA of each Embodiment using a Lipofectamine CRISPRMAX Cas9 Transfection Reagent (Invitrogen, #CMAX00015), and then cultured for 3 days. When treated together with a PARP inhibitor, the PARP inhibitor was treated according to Experimental Example 1.6, and the RNPs were treated one day thereafter.
(§2) To compare cell death effects depending on the concentration of a PARP inhibitor administered, the following experiment was performed. Specifically, Hela cells and HCT-116 cells cultured according to Experimental Example 1.1 were treated with a PARP inhibitor (olaparib) and a CRISPR/nCas composition for cell death having the compositions shown in the following table.
(§3) For each labeled material, experiments were conducted while varying the concentration of olaparib.
(§4) Here, in the case of siRNA, an siRNA having the sequence […] (SEQ ID NO: 40) was used, and 20 pmole thereof was delivered to the cells according to Experimental Example 1.7. After the experiment, cell viability was measured according to Experimental Example 1.8.

[2] = test system: HeLa cells; assay: as above; conditions: nCas9 D10A RNP or siRNA co-treatment, Non-treated (label Olaparib) = PARP inhibitor only
Method: as §1, §2, §3, §4

[3] = test system: HCT-116 cells; assay: Cell viability (CellTiter-Glo), Experimental Example 5: type of PARP inhibitor; conditions: olaparib 1 μM, rucaparib 1 μM, niraparib 0.1 μM, veliparib 2 μM
Method: (§5) A total of 0.5×10^4 cells were mixed with 1 μM olaparib (AZD2281) (Selleckchem, #S1060), 1 μM rucaparib (Selleckchem, #S4948), 0.1 μM niraparib (MK-4827) (Selleckchem, #S2741), 2 μM veliparib (ABT-888) (Selleckchem, #S1004), or 10 µM iniparib (BSI-201) (Selleckchem, #S1087), and seeded onto 24-well plates.
as §1
(§6) Cell viability was measured using a CellTiter-Glo Luminescent Cell Viability Assay (Promega, #G7571). After the transfected cells were cultured for 3 days, the cells were detached using Trypsin-EDTA (0.25%) (Gibco, #25200056). The cells were diluted in 400 μL of DMEM, followed by dispensing 100 μL of the cells, mixed with 100 μL of the CellTiter-Glo Reagent, and then incubated at room temperature for 10 minutes. Luminescence signals were measured using an Infinite 200 (Tecan) in a white opaque 96-well plate (Corning, #3917).
(§7) Specifically, Hela cells and HCT-116 cells cultured according to Experimental Example 1.1 were treated with a PARP inhibitor and a CRISPR/nCas composition for cell death having the compositions shown in the following table.
(§8) For each RNP composition of the embodiment using nCas9^D10A, one PARP inhibitor selected from olaparib, rucaparib, niraparib, veliparib, and iniparib was co-administered. DMSO was used as a control.
(§9) The Cas protein and the nCas protein used in this experiment were prepared according to Experimental Example 1.2, and the sgRNA used was prepared according to Experimental Example 1.3. The nCas protein and the sgRNA were administered to the cells in the form of RNPs according to Experimental Example 1.7. The cells were each treated with the respective PARP inhibitors at the concentrations disclosed in Experimental Example 1.6 using the materials disclosed in the above table.
(§10) Thereafter, cell viability was measured according to Experimental Example 1.8.

[4] = test system: HeLa cells; assay: as above; conditions: olaparib 1 μM, rucaparib 1 μM, niraparib 0.1 μM, veliparib 2 μM
Method: as §5, §1, §6, §7, §8, §9, §10

[5] = olaparib 10 μM, listed as olaparib
[6] = PARP inhibitor with nCas9^D10A, Target = Mock (PBS instead of sgRNA)
[7] = drug_only (no Cas protein, no guide RNA)

## O=C(c1cc(Cc2n[nH]c(=O)c3ccccc23)ccc1F)N1CCN(C(=O)C2CC2)CC1 [Olaparib, olaparib]
[1]; olaparib 0.0001 μM
  Relative cell viability (average, n = 3): 1.0000
[1]; olaparib 0.001 μM
  Relative cell viability (average, n = 3): 0.9939
[1]; olaparib 0.01 μM
  Relative cell viability (average, n = 3): 0.9743
[1]; olaparib 0.1 μM
  Relative cell viability (average, n = 3): 1.0072
[1]; olaparib 1 μM
  Relative cell viability (average, n = 3): 1.0307
[1]; olaparib 10 μM
  Relative cell viability (average, n = 3): 0.7979
[1]; [5]
  Relative cell viability (average, n = 3): exhibits cytotoxicity
[2]; olaparib 0.0001 μM
  Relative cell viability (average, n = 3): 1.0000
[2]; olaparib 0.001 μM
  Relative cell viability (average, n = 3): 0.9810
[2]; olaparib 0.01 μM
  Relative cell viability (average, n = 3): 0.9959
[2]; olaparib 0.1 μM
  Relative cell viability (average, n = 3): 0.9391
[2]; olaparib 1 μM
  Relative cell viability (average, n = 3): 0.9279
[2]; olaparib 10 μM
  Relative cell viability (average, n = 3): 0.1192
[2]; [5]
  Relative cell viability (average, n = 3): exhibits cytotoxicity
[3]; [6]
  Relative cell viability (average, n = 3): 1.0164
[3]; [7]
  Relative cell viability (average, n = 3): 1.1219
[4]; [6]
  Relative cell viability (average, n = 3): 0.9135
[4]; [7]
  Relative cell viability (average, n = 3): 0.8856

— US20260158172A1, “CELL DEATH METHOD USING CRISPR/CAS SYSTEM HAVING SINGLE-STRAND BREAK ACTIVITY AND PARP INHIBITOR” (INSTITUTE FOR BASIC SCIENCE, priority 2023, published 2026)
